# Results taken from patent publication EP4772507A1, “AZAINDOLE COMPOUND AND MEDICAL DRUG” (Nippon Shinyaku Co., Ltd., priority 2023, dated 2025).
# How the values were obtained:
# [1] = Central nervous system (CNS) penetration study in mice; type: in vivo; conditions: female, BALB/cCrSlc, mouse, ip, 30 mg/kg intraperitoneally, three hours later, cerebrum and plasma by LC-MS/MS, read-out: Brain-to-plasma concentration ratio (Kp value)
# Method: To evaluate the central nervous system (CNS) penetration of a test substance, a central nervous system penetration study was conducted using mice.
# Six-week-old female BALB/cCrSlc mice (Japan SLC) were used. The test substance suspended in 0.5% methylcellulose was intraperitoneally administered to mice at a dose of 30 mg/kg. Three hours later, blood was collected from the abdominal vena cava under isoflurane anesthesia, and plasma was obtained by centrifugation. After exsanguination from the abdominal vena cava, the cerebrum was collected.
# The drug concentrations of the collected plasma and cerebrum were measured by LC-MS/MS. To determine the brain penetration of the drug, the brain-to-plasma concentration ratio (Kp value) was calculated.
# [2] = target: T1, C-terminal catalytic domain of MALT1 (amino acid residues 329-824) (Homo sapiens, UniProt Q9UDY8); test: MALT1 protease inhibitory activity (enzyme activity inhibition assay, fluorogenic substrate); type: biochemical; conditions: substrate Ac-Leu-Arg-Ser-Arg-AMC 50 µM; 30°C for 2 hours; fluorescence
# T1 construct: C-terminal catalytic domain of MALT1 (amino acid residues 329-824)
# T1 sequence (Q9UDY8 329-824): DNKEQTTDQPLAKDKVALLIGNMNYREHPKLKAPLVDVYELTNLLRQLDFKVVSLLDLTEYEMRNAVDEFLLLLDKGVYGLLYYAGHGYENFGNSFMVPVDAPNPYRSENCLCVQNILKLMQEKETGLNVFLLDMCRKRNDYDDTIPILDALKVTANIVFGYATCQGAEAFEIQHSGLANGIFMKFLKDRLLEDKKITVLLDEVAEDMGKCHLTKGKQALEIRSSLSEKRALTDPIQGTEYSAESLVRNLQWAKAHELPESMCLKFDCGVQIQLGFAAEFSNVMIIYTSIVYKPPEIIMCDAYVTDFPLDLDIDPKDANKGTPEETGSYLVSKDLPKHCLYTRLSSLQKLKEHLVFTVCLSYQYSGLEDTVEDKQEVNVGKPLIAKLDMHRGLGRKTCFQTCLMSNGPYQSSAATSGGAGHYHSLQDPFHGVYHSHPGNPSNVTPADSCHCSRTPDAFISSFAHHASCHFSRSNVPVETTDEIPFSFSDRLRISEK
# Method: To evaluate the enzyme inhibitory activity of a test substance against MALT1, an enzyme activity inhibition assay was conducted using the C-terminal catalytic domain of MALT1 (amino acid residues 329-824).
# A test substance was prepared at a concentration of 10 mM in dimethyl sulfoxide (DMSO) and further diluted with DMSO to obtain final concentrations of 1000, 100, 10, 1, and 0.1 µM. The solutions were further diluted 25-fold with an assay buffer to prepare final test substance solutions. The composition of the assay buffer was 200 mM Tris/HCl HEPES (pH 7.5), 0.8 M Na citrate, 100 µM DTT, and 0.05% CHAPS.
# The test substance solution was added to a 384-well black plate (#6007270, PerkinElmer) in an amount of 5 µL per well (n = 2; final concentrations of 10000, 1000, 100, 10, 1, and 0.1 nM), followed by the addition of 10 µL of MALT1 enzyme and finally 5 µL of a substrate solution (Ac-Leu-Arg-Ser-Arg-AMC, Peptide Institute, Inc.; final concentration in the reaction mixture: 50 µM), and after stirring, the mixture was allowed to react at 30°C for 2 hours. Fluorescence (excitation: 380 nm, emission: 460 nm) was detected using a microplate reader (EnVision, PerkinElmer).
# Using the measurement data, non-linear regression analysis based on a 2-parameter logistic model was performed with Spotfire (PerkinElmer) to calculate IC50.
# SU-DHL-4 cell lines = test: Proliferation inhibition test, GCB-DLBCL cell line SU-DHL-4 (negative control line); type: cell-based; conditions: Homo sapiens; SU-DHL-4 (GCB-DLBCL, NF-κB pathway-independent, negative control); 96 hours; Cell Counting Kit-8; read-out: Proliferation inhibitory activity against SU-DHL-4 IC50
# Method: (§1) In ABC-DLBCL cell lines, the NF-κB pathway is constitutively activated due to mutations in the B-cell receptor pathway. To evaluate the proliferation inhibitory activity associated with the MALT1 inhibitory activity of the test substance, a proliferation inhibition test was conducted using ABC-DLBCL cell lines.
# (§2) The test substance was prepared at a concentration of 10 mM in dimethyl sulfoxide (DMSO) and further diluted with DMSO to each of concentrations of 3,000, 1,000, 300, 100, 30, and 10 µM. The solutions were further diluted 100-fold with IMDM medium containing 10% FBS to prepare test substance solutions.
# (§3) OCI-Ly3 cell lines (ABC-DLBCL, NF-κB pathway-dependent) were cultured in IMDM containing 10% FBS, and SU-DHL-4 cell lines (GCB-DLBCL, NF-κB pathway-independent, used as a negative control) were cultured in RPMI-1640 containing 10% FBS. Into a 96-well plate, 2,000 cells of the OCI-Ly3 cell line and 4,000 cells of the SU-DHL-4 cell line were seeded in 100 µL per well, and 11 µL of the adjusted test substance solution was added thereto (final concentrations: 10,000, 3,000, 1,000, 300, 100, 30, and 10 nM). After 96 hours of incubation at 37°C in a 5% CO2 incubator, 10 µL of Cell Counting Kit-8 (Dojindo Laboratories) was added to each well. After 4 hours of incubation at 37°C, absorbance at 450 nm was detected using a microplate reader (EnVision, PerkinElmer).
# (§4) Using the measurement data, non-linear regression analysis based on a 2-parameter logistic model was performed with Spotfire (PerkinElmer) to estimate IC50 values.
# [3] = system: HEK293/API2-MALT1/NF-κB reporter cells; test: Inhibition of reporter activity in HEK293/API2-MALT1/NF-κB reporter cells; type: cell-based; conditions: Homo sapiens, 24 hours with test substance, One-glo luminescence
# Method: The API2-MALT1 fusion protein, expressed in MALT lymphoma, is known to constitutively activate the NF-κB pathway. To evaluate the inhibitory effect of the test substance on the NF-κB pathway in cells, a reporter activity inhibition test was conducted using HEK293/API2-MALT1/NF-κB reporter cells.
# The test substance was prepared at a concentration of 10 mM in dimethyl sulfoxide (DMSO) and further diluted with DMSO to each of concentrations of 1000, 300, 100, and 10 µM. The solutions were further diluted 100-fold with DMEM medium containing 10% FBS to prepare test substance solutions.
# HEK293/API2-MALT1/NF-κB reporter cells and 293T/CMV reporter cells (used as a negative control) were cultured in DMEM medium containing 10% FBS. Into a 384-well plate (#781080, Greiner), 6,000 cells were seeded in 30 µL per well, and after culturing for 24 hours, 3.3 µL of the adjusted test substance solution was added thereto (final concentrations: 10,000, 1,000, 100, and 10 nM). After culturing for 24 hours at 37°C in a 5% CO2 incubator, 33 µL of One-glo (Promega) was added to each well. After a 5-minute incubation at room temperature, luminescence was detected using a microplate reader (EnVision, PerkinElmer).
# Using the measurement data, non-linear regression analysis was performed with the SAS system (SAS Institute Inc.) to estimate IC50.
# OCI-Ly3 cell lines = test: Proliferation inhibition test, ABC-DLBCL cell line OCI-Ly3; type: cell-based; conditions: Homo sapiens; OCI-Ly3 (ABC-DLBCL, NF-κB pathway-dependent); 96 hours; Cell Counting Kit-8; read-out: Proliferation inhibitory activity against OCI-Ly3 IC50
# Method: as §1, §2, §3, §4
smiles,measurement,setting,value
"C[C@@H]1CC(C(=O)c2cn(C3COC3)c3nc(-n4nccn4)c(Cl)cc23)C[C@@H](C)N1c1ncc(F)cc1I (stereo partly drawn) [Example 1, [5-chloro-1-(oxetan-3-yl)-6-(2H-1,2,3-triazol-2-yl)-1H-pyrrolo[2,3-b]pyridin-3-yl][(2R,6R)-1-(5-fluoro-3-iodopyridin-2-yl)-2,6-dimethylpiperidin-4-yl]methanone]",Kp at 3 h,[1],1.6
same,IC50,[2],0.045 µM
same,IC50,SU-DHL-4 cell lines,5.4 µM
same,IC50,[3],0.17 µM
same,IC50,OCI-Ly3 cell lines,0.62 µM
"C[C@@H]1CC(C(=O)c2cn(C)c3nc(-n4nccn4)c(Cl)cc23)C[C@@H](C)N1c1ncc(F)cc1I (stereo partly drawn) [Example 2, [5-chloro-1-methyl-6-(2H-1,2,3-triazol-2-yl)-1H-pyrrolo[2,3-b]pyridin-3-yl][(2R,6R)-1-(5-fluoro-3-iodopyridin-2-yl)-2,6-dimethylpiperidin-4-yl]methanone]",Kp at 3 h,[1],1.2
same,IC50,[2],0.018 µM
same,IC50,SU-DHL-4 cell lines,7.2 µM
same,IC50,[3],0.06 µM
same,IC50,OCI-Ly3 cell lines,0.3 µM
"C[C@@H]1CC(C(=O)c2cn(CC#N)c3nc(-n4nccn4)c(Cl)cc23)C[C@@H](C)N1c1ncc(F)cc1I (stereo partly drawn) [Example 3, {5-chloro-3-[(2R,6R)-1-(5-fluoro-3-iodopyridin-2-yl)-2,6-dimethylpiperidin-4-carbonyl]-6-(2H-1,2,3-triazol-2-yl)-1H-pyrrolo[2,3-b]pyridin-1-yl}acetonitrile]",Kp at 3 h,[1],0.73
same,IC50,[2],0.043 µM
same,IC50,SU-DHL-4 cell lines,6.3 µM
same,IC50,[3],0.2 µM
same,IC50,OCI-Ly3 cell lines,0.58 µM
"CC(=O)N1CC(n2cc(C(=O)C3C[C@@H](C)N(c4ncc(F)cc4I)[C@H](C)C3)c3cc(Cl)c(-n4nccn4)nc32)C1 (stereo partly drawn) [Example 5, 1-(3-{5-chloro-3-[(2R,6R)-1-(5-fluoro-3-iodopyridin-2-yl)-2,6-dimethylpiperidin-4-carbonyl]-6-(2H-1,2,3-triazol-2-yl)-1H-pyrrolo[2,3-b]pyridin-1-yl}azetidin-1-yl)ethan-1-one]",Kp at 3 h,[1],0.12
same,IC50,[2],0.035 µM
same,IC50,SU-DHL-4 cell lines,3.6 µM
same,IC50,[3],0.16 µM
same,IC50,OCI-Ly3 cell lines,0.31 µM
"C[C@@H]1CC(C(=O)c2cn(C3CC3)c3nc(-n4nccn4)c(Cl)cc23)C[C@@H](C)N1c1ncc(F)cc1I (stereo partly drawn) [Example 16, [5-chloro-1-cyclopropyl-6-(2H-1,2,3-triazol-2-yl)-1H-pyrrolo[2,3-b]pyridin-3-yl][(2R,6R)-1-(5-fluoro-3-iodopyridin-2-yl)-2,6-dimethylpiperidin-4-yl]methanone]",Kp at 3 h,[1],0.28
same,IC50,[2],0.31 µM
same,IC50,SU-DHL-4 cell lines,9.7 µM
same,IC50,OCI-Ly3 cell lines,0.72 µM
"Cn1cc(C(=O)c2cnn(-c3ccnc4sccc34)c2C(F)(F)F)c2cc(Cl)c(-n3nccn3)nc21 [Example 24, [5-chloro-1-methyl-6-(2H-1,2,3-triazol-2-yl)-1H-pyrrolo[2,3-b]pyridin-3-yl][1-(thieno[2,3-b]pyridin-4-yl)-5-(trifluoromethyl)-1H-pyrazol-4-yl]methanone]",IC50,[2],0.012 µM
same,IC50,SU-DHL-4 cell lines,9.1 µM
same,IC50,[3],0.13 µM
same,IC50,OCI-Ly3 cell lines,0.18 µM
"O=C(c1cnn(-c2cncc3sccc23)c1C(F)(F)F)c1cn(C2COC2)c2nc(-n3nccn3)c(Cl)cc12 [Example 25, [5-chloro-1-(oxetan-3-yl)-6-(2H-1,2,3-triazol-2-yl)-1H-pyrrolo[2,3-b]pyridin-3-yl][1-(thieno[2,3-c]pyridin-4-yl)-5-(trifluoromethyl)-1H-pyrazol-4-yl]methanone]",IC50,[2],0.019 µM
same,IC50,SU-DHL-4 cell lines,9 µM
same,IC50,[3],0.18 µM
same,IC50,OCI-Ly3 cell lines,0.44 µM
"Cn1cc(C(=O)c2cnn(-c3cccn4nccc34)c2C(F)(F)F)c2cc(Cl)c(-n3nccn3)nc21 [Example 27, [5-chloro-1-methyl-6-(2H-1,2,3-triazol-2-yl)-1H-pyrrolo[2,3-b]pyridin-3-yl][1-(pyrazolo[1,5-a]pyridin-4-yl)-5-(trifluoromethyl)-1H-pyrazol-4-yl]methanone]",IC50,[2],0.0058 µM
same,IC50,SU-DHL-4 cell lines,7.2 µM
same,IC50,[3],0.28 µM
same,IC50,OCI-Ly3 cell lines,0.38 µM
"O=C(c1cnn(-c2cccc3c(=O)[nH]ccc23)c1C(F)(F)F)c1cn(C2CCC2)c2nc(-n3nccn3)c(Cl)cc12 [Example 30, 5-{4-[5-chloro-1-cyclobutyl-6-(2H-1,2,3-triazol-2-yl)-1H-pyrrolo[2,3-b]pyridine-3-carbonyl]-5-(trifluoromethyl)-1H-pyrazol-1-yl}isoquinolin-1(2H)-one]",IC50,[2],0.044 µM
same,IC50,SU-DHL-4 cell lines,> 10 µM
same,IC50,[3],0.5 µM
same,IC50,OCI-Ly3 cell lines,0.87 µM
"Cn1cc(C(=O)c2cnn(-c3cccn4c(=O)cccc34)c2C(F)(F)F)c2cc(Cl)c(-n3nccn3)nc21 [Example 31, 9-{4-[5-chloro-1-methyl-6-(2H-1,2,3-triazol-2-yl)-1H-pyrrolo[2,3-b]pyridine-3-carbonyl]-5-(trifluoromethyl)-1H-pyrazol-1-yl}-4H-quinolizin-4-one]",IC50,[2],0.025 µM
same,IC50,SU-DHL-4 cell lines,> 10 µM
same,IC50,[3],0.073 µM
same,IC50,OCI-Ly3 cell lines,0.15 µM
"COc1nc2c(cc1Cl)c(C(=O)c1cnn(-c3cncc4c(F)cccc34)c1C(F)(F)F)cn2C [Example 32, (5-chloro-6-methoxy-1-methyl-1H-pyrrolo[2,3-b]pyridin-3-yl)[1-(8-fluoroisoquinolin-4-yl)-5-(trifluoromethyl)-1H-pyrazol-4-yl]methanone]",IC50,[2],0.054 µM
same,IC50,SU-DHL-4 cell lines,> 10 µM
same,IC50,[3],0.28 µM
same,IC50,OCI-Ly3 cell lines,0.14 µM
